Source: article PMC6751662, “Pharmacological and functional similarities of the human neuropeptide Y system in C. elegans challenges phylogenetic views on the FLP/NPR system” (Cell Communication and Signaling : CCS, 2019)
Blank lines part the entries; values can stand above or below the substance they belong to.

Tests used:
Y1R = molecular target: T1, Y1R (Homo sapiens, UniProt P25929); assay: cAMP reporter gene assay, Gi/o, Y1R; type: cell-based; conditions: for cAMP assay (Gi/o), Y1R: 4 h, lower = higher Gi/o activity, transfected HEK293, CRE-luciferase, mean of >=3 independent experiments; for Gi (Gs) [x-fold of forskolin], Y1R, mean: inhibition of cAMP production induced by 1 µM forskolin (set to 1.00), transiently transfected HEK293 cells, mean of at least three independent experiments
T1 construct: expressed in transfected cells; host or cells: HEK293, transient
T1 sequence (P25929 1-384): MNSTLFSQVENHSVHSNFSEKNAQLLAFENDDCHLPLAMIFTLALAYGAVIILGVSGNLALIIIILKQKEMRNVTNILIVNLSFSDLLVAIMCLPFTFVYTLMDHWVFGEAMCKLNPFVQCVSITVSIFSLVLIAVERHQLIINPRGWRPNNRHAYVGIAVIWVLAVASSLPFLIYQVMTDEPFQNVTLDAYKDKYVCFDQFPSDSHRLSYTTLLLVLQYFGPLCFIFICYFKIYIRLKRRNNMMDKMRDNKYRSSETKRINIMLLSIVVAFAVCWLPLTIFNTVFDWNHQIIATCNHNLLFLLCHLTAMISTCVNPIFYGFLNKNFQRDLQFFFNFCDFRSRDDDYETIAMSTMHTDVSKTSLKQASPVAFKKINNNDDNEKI
Procedure: (§1) Activation of Gs and Gi/o was assessed with a cAMP reporter gene assay. HEK293 cells grown to 70–80% confluency in 6-well plates were transiently co-transfected with vectors encoding the receptor and the cAMP reporter gene plasmid pGL4.29 [luc2P/CRE/Hygro] (Promega; 4 μg total, 1:1 ratio) using Metafectene Pro (3 μl/μg DNA; Biontex) following the manufacturer’s instructions. 16 h post transfection, the cells were seeded into white 384-well plates at a density of 20,000 cells/well. On the next day, the medium was removed and the cells were stimulated with 20 μl of peptide solution (or forskolin as positive control) in serum-free DMEM for 4 h. For measuring Gi/o activity, the peptide solutions additionally contained 1 μM forskolin to elevate cellular cAMP levels. After incubation, the luciferase substrate OneGlo in lysis buffer (Promega) was added and the luminescence was measured in a microplate reader Tecan Spark (Tecan). Data were analyzed with GraphPad Prism 5.03 and are shown as fold of basal or fold of forskolin in case of Gαi/o activity.
(§2) For in vitro activation, data is presented as mean ± SEM of at least three independent experiments conducted in technical triplicate. […] For the C. elegans NPRs, we considered the strongest response elicited by any of the peptides downstream of a particular receptor as the receptor’s maximal signal. This may or may not be the biological maximum that can be reached by the ‘true’ endogenous agonist. For the human receptors, the response to the established endogenous agonist reflected the maximal signal.

Y2R = molecular target: T2, Y2R (Homo sapiens, UniProt P49146); assay: cAMP reporter gene assay, Gi/o, Y2R; type: cell-based; conditions: for cAMP assay (Gi/o), Y2R: 4 h, lower = higher Gi/o activity, transfected HEK293, CRE-luciferase, mean of >=3 independent experiments; for Gi (Gs) [x-fold of forskolin], Y2R, mean: inhibition of cAMP production induced by 1 µM forskolin (set to 1.00), transiently transfected HEK293 cells, mean of at least three independent experiments
T2 construct: expressed in transfected cells; host or cells: HEK293, transient
T2 sequence (P49146 1-381): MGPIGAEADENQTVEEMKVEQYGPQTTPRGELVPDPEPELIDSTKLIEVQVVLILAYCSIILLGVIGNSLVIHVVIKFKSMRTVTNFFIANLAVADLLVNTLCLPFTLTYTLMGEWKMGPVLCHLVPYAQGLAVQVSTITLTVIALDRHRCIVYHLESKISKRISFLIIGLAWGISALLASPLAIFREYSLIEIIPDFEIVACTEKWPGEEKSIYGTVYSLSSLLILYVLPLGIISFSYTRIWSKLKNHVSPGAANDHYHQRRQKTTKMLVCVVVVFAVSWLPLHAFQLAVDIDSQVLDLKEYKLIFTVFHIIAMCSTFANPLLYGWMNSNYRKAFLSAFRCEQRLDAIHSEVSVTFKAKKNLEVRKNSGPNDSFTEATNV
Procedure: as §1, §2

NPFF1R = molecular target: T3, NPFF1R (Homo sapiens, UniProt Q9GZQ6); assay: cAMP reporter gene assay, Gi/o, NPFF1R; type: cell-based; conditions: for cAMP assay (Gi/o), NPFF1R: 4 h, lower = higher Gi/o activity, transfected HEK293, CRE-luciferase, mean of >=3 independent experiments; for Gi (Gs) [x-fold of forskolin], NPFF1R, mean: inhibition of cAMP production induced by 1 µM forskolin (set to 1.00), transiently transfected HEK293 cells, mean of at least three independent experiments
T3 construct: expressed in transfected cells; host or cells: HEK293, transient
T3 sequence (Q9GZQ6 whole entry): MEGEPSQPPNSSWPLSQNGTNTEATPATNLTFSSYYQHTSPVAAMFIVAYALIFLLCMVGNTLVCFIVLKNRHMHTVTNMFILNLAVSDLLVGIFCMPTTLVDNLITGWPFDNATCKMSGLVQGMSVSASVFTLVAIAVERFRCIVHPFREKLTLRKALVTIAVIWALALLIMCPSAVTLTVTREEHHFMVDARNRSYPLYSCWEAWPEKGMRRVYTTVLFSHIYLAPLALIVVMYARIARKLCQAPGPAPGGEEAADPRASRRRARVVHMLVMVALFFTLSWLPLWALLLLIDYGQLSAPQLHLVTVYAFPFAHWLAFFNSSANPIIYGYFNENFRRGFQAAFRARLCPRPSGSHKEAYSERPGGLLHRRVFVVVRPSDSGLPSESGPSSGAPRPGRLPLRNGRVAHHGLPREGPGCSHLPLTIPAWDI
Procedure: as §1, §2

NPR-5b = molecular target: T4, NPR-5b (Caenorhabditis elegans, UniProt Q6F3C9); assay: IP accumulation assay (Table S8), NPR-5b; type: cell-based, C. elegans; conditions: 1 h, HBSS + 20 mM LiCl, transfected HEK293, Table S8 (title: chimeric GαΔ6qi4myr), HTRF IP-One, mean of >=3 independent experiments
T4 sequence (Q6F3C9 1-433): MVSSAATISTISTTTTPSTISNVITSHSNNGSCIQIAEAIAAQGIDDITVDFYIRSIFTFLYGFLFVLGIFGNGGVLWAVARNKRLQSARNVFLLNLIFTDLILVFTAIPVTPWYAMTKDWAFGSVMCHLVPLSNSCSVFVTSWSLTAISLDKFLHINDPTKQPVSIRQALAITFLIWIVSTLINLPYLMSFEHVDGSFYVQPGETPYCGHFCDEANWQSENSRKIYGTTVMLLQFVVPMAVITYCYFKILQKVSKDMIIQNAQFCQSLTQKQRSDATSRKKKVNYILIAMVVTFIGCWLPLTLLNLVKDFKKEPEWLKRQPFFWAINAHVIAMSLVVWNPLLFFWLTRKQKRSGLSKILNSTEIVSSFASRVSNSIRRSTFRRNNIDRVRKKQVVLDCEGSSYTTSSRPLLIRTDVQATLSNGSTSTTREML
Procedure: (§3) For measuring IP accumulation, HEK293 cells grown to 70–80% confluency in 6-well plates were transiently co-transfected using Metafectene Pro (2.5 μl/μg DNA; Biontex) with plasmids containing receptor and/or mock (empty pcDNA3.1) (for endogenous Gq-coupling) using 4 μg total DNA in a ratio of 3:1 following the manufacturer’s instructions. For testing Gα16- and GαΔ6qi4myr-coupling, plasmids encoding the corresponding Gα protein were co-transfected instead of mock. Gα16 is naturally promiscuous and stimulates the phospholipase C (PLC) pathway leading to IP production, while the exchange of the C-terminal four amino acids of Gαq for the corresponding residues of Gαi1 in the chimeric GαΔ6qi4myr confers the ability to couple to Gi/o protein-preferring receptors but still stimulate PLC, thus specifically redirecting downstream cellular signaling. 16 h post transfection, the cells were seeded into white 384-well plates at a density of 20,000 cells/well. Media was removed 24 h later and the cells were incubated with the indicated concentration of peptides for 1 h in HBSS + 20 mM LiCl. IP accumulation was measured with the HTRF-based IP-One Gq kit (Cisbio) on a microplate reader (Tecan Spark).
as §2

[1] = test system: mock (empty vector) transfected HEK293 cells; assay: IP accumulation assay, negative control: empty vector (mock) instead of the receptor; type: cell-based, Homo sapiens; conditions: 1 h, HBSS + 20 mM LiCl, HEK293 with empty vector instead of receptor (negative control), HTRF IP-One, mean of >=3 independent experiments
Procedure: as §3, §2

[2] = 0.1 µM peptide + 1 µM forskolin (set to 1.00)
[3] = 10 µM peptide + 1 µM forskolin (set to 1.00)

Substance: APKPKFIRF-NH2 [FLP-5-1, C. elegans FMRFamide-like peptide, C-terminally amidated, synthesized by SPPS]
IP accumulation, NPR-5b (NPR-5b; 0.1 µM peptide): 0.91 x-fold of basal
IP accumulation, NPR-5b (NPR-5b; 10 µM peptide): 1.45 x-fold of basal
IP accumulation, mock ([1]; 0.1 µM peptide): 1.08 x-fold of basal
IP accumulation, mock ([1]; 10 µM peptide): 1.01 x-fold of basal

Substance: GLGPRPLAF-NH2 [[R8A]FLP-21, R8A control peptide of FLP-21, penultimate arginine exchanged for an alanine]
Gi (Gs) [x-fold of forskolin], Y1R, mean (Y1R; 0.1 µM peptide): 0.85 x-fold of forskolin
Gi (Gs) [x-fold of forskolin], Y1R, mean (Y1R; 10 µM peptide): 0.76 x-fold of forskolin
Gi (Gs) [x-fold of forskolin], Y2R, mean (Y2R; 0.1 µM peptide): 0.88 x-fold of forskolin
Gi (Gs) [x-fold of forskolin], Y2R, mean (Y2R; 10 µM peptide): 0.81 x-fold of forskolin
Gi (Gs) [x-fold of forskolin], NPFF1R, mean (NPFF1R; 0.1 µM peptide): 1.03 x-fold of forskolin
Gi (Gs) [x-fold of forskolin], NPFF1R, mean (NPFF1R; 10 µM peptide): 0.66 x-fold of forskolin

Substance: ASPSFIRF-NH2 [FLP-4-2, C. elegans FMRFamide-like peptide, C-terminally amidated, synthesized by SPPS]
IP accumulation, NPR-5b (NPR-5b; 0.1 µM peptide): 0.90 x-fold of basal
IP accumulation, NPR-5b (NPR-5b; 10 µM peptide): 1.98 x-fold of basal
IP accumulation, mock ([1]; 0.1 µM peptide): 0.75 x-fold of basal
IP accumulation, mock ([1]; 10 µM peptide): 0.75 x-fold of basal

Substance: RGPSGPLAF-NH2 [[R8A]FLP-15-2]
Gi (Gs) [x-fold of forskolin], Y1R, mean (Y1R; 0.1 µM peptide): 0.72 x-fold of forskolin
Gi (Gs) [x-fold of forskolin], Y1R, mean (Y1R; 10 µM peptide): 0.71 x-fold of forskolin
Gi (Gs) [x-fold of forskolin], Y2R, mean (Y2R; 0.1 µM peptide): 0.86 x-fold of forskolin
Gi (Gs) [x-fold of forskolin], Y2R, mean (Y2R; 10 µM peptide): 1.05 x-fold of forskolin
Gi (Gs) [x-fold of forskolin], NPFF1R, mean (NPFF1R; 0.1 µM peptide): 0.91 x-fold of forskolin
Gi (Gs) [x-fold of forskolin], NPFF1R, mean (NPFF1R; 10 µM peptide): 0.71 x-fold of forskolin

Substance: NPENDTPFGTMRF-NH2 [FLP-3-4, C. elegans FMRFamide-like peptide, C-terminally amidated, synthesized by SPPS]
IP accumulation, NPR-5b (NPR-5b; 0.1 µM peptide): 1.19 x-fold of basal
IP accumulation, NPR-5b (NPR-5b; 10 µM peptide): 8.18 x-fold of basal
IP accumulation, mock ([1]; 0.1 µM peptide): 1.08 x-fold of basal
IP accumulation, mock ([1]; 10 µM peptide): 1.16 x-fold of basal

Substance: AGSDPNFLRF-NH2 [FLP-1-2, C. elegans FMRFamide-like peptide, C-terminally amidated, synthesized by SPPS]
IP accumulation, NPR-5b (NPR-5b; 0.1 µM peptide): 0.99 x-fold of basal
IP accumulation, NPR-5b (NPR-5b; 10 µM peptide): 1.80 x-fold of basal
IP accumulation, mock ([1]; 0.1 µM peptide): 4.14 x-fold of basal
IP accumulation, mock ([1]; 10 µM peptide): 1.78 x-fold of basal

Further lines, results first:

cAMP assay (Gi/o), Y1R (Y1R; [2]): 0.88 x-fold of forskolin
cAMP assay (Gi/o), Y1R (Y1R; [3]): 0.23 x-fold of forskolin
cAMP assay (Gi/o), Y2R (Y2R; [2]): 0.80 x-fold of forskolin
cAMP assay (Gi/o), Y2R (Y2R; [3]): 0.17 x-fold of forskolin
cAMP assay (Gi/o), NPFF1R (NPFF1R; [2]): 0.76 x-fold of forskolin
cAMP assay (Gi/o), NPFF1R (NPFF1R; [3]): 0.26 x-fold of forskolin
Substance: EASAFGDIIGELKGKGLGGRMRF-NH2 [FLP-27, NPY-like C. elegans FLP with C-terminal RxRF/Ya signature]

cAMP assay (Gi/o), Y1R (Y1R; [2]): 0.94 x-fold of forskolin
cAMP assay (Gi/o), Y1R (Y1R; [3]): 0.73 x-fold of forskolin
cAMP assay (Gi/o), Y2R (Y2R; [2]): 0.89 x-fold of forskolin
cAMP assay (Gi/o), Y2R (Y2R; [3]): 0.76 x-fold of forskolin
cAMP assay (Gi/o), NPFF1R (NPFF1R; [2]): 0.81 x-fold of forskolin
cAMP assay (Gi/o), NPFF1R (NPFF1R; [3]): 0.47 x-fold of forskolin
Substance: APLEGFEDMSGFLRTIDGIQKPRF-NH2 [FLP-33, NPY-like C. elegans FLP with C-terminal RxRF/Ya signature]
